Each structure is given as a SMILES string.

The target in data set [1] is transient receptor potential melastatin-8 (TRPM8) ion channels (Homo sapiens, UniProt Q7Z2W7). The conditions noted are these: background statement; cited from earlier work.
The nature of data set [2]: WS12 leaching into PBS packaging solution during autoclave (HPLC). Particulars: standard contact lens sterilization and storage conditions. The data set is classed as physicochemical. The method, then: Silicone hydrogel contact lenses were prepared by curing the formulation for stenfilcon A in contact lens molds. The cured stenfilcon A was removed from the molds and extracted by immersing them for 215 minutes in ethanol (EtOH) containing WS12 (Tocris Bioscience) in the loading concentrations shown in Table I. The lenses were removed from the EtOH and washed in DI water for approximately 6 minutes, followed by two exchanges of DI water for approximately 30 minutes each. The lenses were transferred to 6 mL glass vials containing 3 mL phosphate buffered saline at pH 7.5 (0.78 wt. % NaCl, 0.05 wt. % sodium phosphate monobasic, and 0.36 wt. % sodium phosphate dibasic), referred to herein as PBS. The vials were sealed and autoclaved.
Each autoclaved lens was transferred to a vial containing 3 ml EtOH and stored overnight on a 150 rpm shaker at room temperature to extract WS12 from the lens. The EtOH extracts and the PBS in which the lenses were autoclaved were submitted for analysis by HPLC (detection wavelength=250 nm) against calibration standards to determine the average amount of WS12 loaded into each (n=5) and whether the WS12 leaches from the lens during autoclave.

Chain of transient receptor potential melastatin-8 (TRPM8) ion channels (Q7Z2W7 whole entry, species assumed): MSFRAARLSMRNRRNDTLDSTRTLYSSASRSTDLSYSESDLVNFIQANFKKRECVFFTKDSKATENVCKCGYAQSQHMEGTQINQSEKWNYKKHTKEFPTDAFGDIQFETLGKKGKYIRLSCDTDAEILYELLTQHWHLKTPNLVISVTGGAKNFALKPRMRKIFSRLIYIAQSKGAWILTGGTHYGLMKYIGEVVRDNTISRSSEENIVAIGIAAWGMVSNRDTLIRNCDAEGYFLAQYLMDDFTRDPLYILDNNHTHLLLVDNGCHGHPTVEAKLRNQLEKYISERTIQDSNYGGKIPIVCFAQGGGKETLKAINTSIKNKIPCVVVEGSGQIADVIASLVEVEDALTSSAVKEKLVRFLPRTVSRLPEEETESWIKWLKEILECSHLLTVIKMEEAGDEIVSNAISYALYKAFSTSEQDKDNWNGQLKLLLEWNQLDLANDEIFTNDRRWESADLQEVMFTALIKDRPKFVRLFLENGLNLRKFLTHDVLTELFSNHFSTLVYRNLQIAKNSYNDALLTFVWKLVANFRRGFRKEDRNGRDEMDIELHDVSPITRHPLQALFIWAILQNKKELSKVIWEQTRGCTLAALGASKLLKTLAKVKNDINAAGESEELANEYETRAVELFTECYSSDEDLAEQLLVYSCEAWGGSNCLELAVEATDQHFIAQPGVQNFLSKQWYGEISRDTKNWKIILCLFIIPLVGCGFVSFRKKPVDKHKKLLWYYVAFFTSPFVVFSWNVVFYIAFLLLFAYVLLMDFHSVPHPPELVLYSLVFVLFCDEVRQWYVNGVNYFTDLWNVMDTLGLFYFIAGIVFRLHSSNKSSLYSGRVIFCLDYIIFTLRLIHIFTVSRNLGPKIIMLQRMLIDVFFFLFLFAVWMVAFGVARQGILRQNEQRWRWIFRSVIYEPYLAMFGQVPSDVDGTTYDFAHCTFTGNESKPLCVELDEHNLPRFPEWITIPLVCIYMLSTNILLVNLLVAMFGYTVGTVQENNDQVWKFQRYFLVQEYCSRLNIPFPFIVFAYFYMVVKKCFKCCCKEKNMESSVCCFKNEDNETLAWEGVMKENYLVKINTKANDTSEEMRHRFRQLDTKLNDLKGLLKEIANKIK

With `COc1ccc(NC(=O)C2CC(C)CCC2C(C)C)cc1` (centres unmarked) [WS12, N-(4-Methoxyphenyl)-5-methyl-2-(1-methylethyl)cyclohexanecarboxamide], the “activation of TRPM8 ion channels” value in data set [1] is “selectively activates”. The “stability of WS12 in hydrogel contact lens material” value in data set [2] is “without degradation or leaching”.
